Assay results from patent publication US7820060B2, “Synergistic biocide and process for controlling growth of microorganisms” (Hercules Incorporated, priority 2005, dated 2010).

Experiments:
[1] = tested on: multi-species bacterial consortium (artificial consortium); assay: Dose protocol: growth inhibition (O.D. 650 nm, 4 hours) of artificial bacterial consortium in synthetic white water, I50 and synergy index; assay type: cell-based; details: for Synergy Index: <1.00 synergistic; for mg/l NH2Cl (alone or in the mixture) to yield 50% inhibition (I50) / mg/l NHCl2 (alone or in the mixture) to yield 50% inhibition (I50): concurrent feed, mg/l as Cl2
Protocol: The efficacies of the active materials and blends were determined using a dose protocol. The actives were evaluated in synthetic white water (see Smith et al., U.S. Pat. […] The materials were tested against multi-species bacterial consortium (also referred to as an artificial consortium) containing approximately equal numbers of six bacterial strains. Although the test strains are representative of organisms present in paper mill systems, the effect is not limited to these bacteria. Two of the strains were Klebsiella pneumonia (ATCC 13883) and Pseudomonas aeruginosa (ATCC 15442). The other four strains were isolated from paper mill systems and have been identified as Curtobacterium flaccumfaciens, Burkholderia cepacia, Bacillus maroccanus, and Pseudomonas […]. Each strain was grown on Tryptic Soy Agar overnight at 37° C. Sterile cotton-tipped swabs were used to aseptically transfer cells to a sterile solution of saline. Each cell suspension was prepared to a desired concentration as measured by turbidity before equal volumes of each strain were then combined to prepare the consortium. The bacterial consortium was distributed into the wells of a microtiter plate before additions of monohaloamine and/or dihaloamine were made. The microtiter plates were incubated at 37° C. Optical density (O.D.) readings at 650 nm were taken initially (t0) and after time 4 hours (t4) of incubation. […] The inhibition values can be plotted versus dosage for each active and the particular blend. […] Synergy Index (SI)=(QA÷Qa)+(QB÷Qb) where: • QA=quantity of compound A in mixture, producing the end point • Qa=quantity of compound A, acting alone, producing the end point • QB=quantity of compound B in mixture, producing the end point • Qb=quantity of compound B, acting alone, producing the end point […] A measured amount of monochloramine and a measured amount of dichloramine were added to a suspension of bacteria and the cell suspension incubated for a selected time period. The effectiveness of the combination of biocides was determined by measuring growth or lack thereof after an additional appropriate incubation time.

[2] = tested on: artificial bacterial consortia; assay: Standard challenge assay: numbers of bacteria surviving after contact time in mineral salt solution; assay type: cell-based
Protocol: The antibacterial efficacy of monochloramine and dichloramine alone and in combination were compared in a standard challenge assay. To perform the assay, artificial bacterial consortia were prepared using the same species as those in the microtiter assays. A mineral salt solution was prepared by combining K2HPO4 (1.2 mg/l), KH2PO4 (0.624 mg/l), (NH4)2SO4 (0.05 g/l), and NaCl (0.1 mg/l). This solution was sterilized by autoclaving (121° C., 15 min) and, after cooling, it was amended with the following: 10 ml/l of filter sterilized solution of 0.5% (w/v) of CaCl2.6H2O; 10 ml/l of filter sterilized solution of 2% MgSO4.7H2O; filter-sterilized glucose (0.01 g/l, final concentration); 1 ml of a filter-sterilized solution containing Na2EDTA (ethylene diamine tetra acetate) (1.58 g/100 ml), ZnSO4.7H2O (0.7 g/100 ml); MnSO4—H2O (0.18 g/100 ml); FeSO4.7H2O (0.16 g/100 ml); COCl2.6H2O (0.052 g/100 ml); NaMoO4.2H2O (0.042 g/100 ml); and CuSO4.5H2O (0.047 g/100 ml). Equal volumes of cell suspensions of each strain were then combined to prepare the consortium. The bacterial consortium was distributed into sterile glass containers and immediately used in challenge studies. To determine the effect of pH of the mineral salt solution on efficacy of monochloramine, dichloramine, and combinations thereof, the pH of the cell suspension was adjusted to desired levels using dilute solutions of sodium hydroxide or phosphoric acid, as appropriate. The pH values tested in the challenge studies were 5.0, 6.0, 7.0, and 8.0. The pH values represent the pH of whitewater typical of the majority of paper mills.
After the monohaloamine solution was prepared, the quantity needed to achieve a desired final concentration was transferred to the previously prepared bacterial consortium. Samples of the bacterial consortium were collected immediately before addition of the monochloramine and after contact times, usually 1, 10, and 20 minutes. Controls were untreated cell suspensions.
To perform a challenge study, monochloramine was prepared to a desired concentration by mixing appropriate quantities of 30% ammonium hydroxide and 6.2% percent sodium hypochlorite in a volume of deionized water in such a manner as to achieve equimolar ratios of Cl^− and NH2^+. After preparation of the monochloramine solution, the purity of the solution was verified by determining its absorbance spectrum. To prepare a dichloramine solution, the pH of a monochloramine solution was adjusted to down to 5.0. This ensured conversion of monochloramine to dichloramine. […] The concentrations of monochloramine and dichloramine in the solutions were confirmed by measuring total chlorine concentration by Hach DPD chlorine test.
In this example, a measured amount of monochloramine and a measured amount of dichloramine were added to a consortium of bacteria prepared to a density of approximately 1×10^6 cells per milliliter and the cell suspension incubated for a selected time. The consortium of bacteria is described above. The effectiveness of the combination of biocides was determined by measuring the number of bacteria that survived after the contact time. The efficacy of monochloramine, dichloramine, and combinations of the two actives were compared at different pH values. Bacterial consortia were prepared in mineral salts solutions with pH adjusted to selected values and challenged with monochloramine and dichloramine and combinations thereof. Samples for enumerating the number of surviving bacteria were collected at selected time intervals.
Although synergy was detected when monochloramine and dichloramine were combined in a 1:1 ratio, the results of Example 1 illustrated that optimum ratios were larger than 1:1 (monochloramine to dichloramine). In this example, bacterial consortia were prepared with the pH of the mineral salts solution adjusted to selected levels immediately before the cells were added. […]

[3] = pH 5.5, based on 50% inhibition
[4] = pH 8.0, based on 50% inhibition

Row | Structure (SMILES) | Synergy Index [1, 3] | mg/l NH2Cl (alone or in the mixture) to yield 50% inhibition (I50) ([1]; pH 5.5, synthetic white water) | Synergy Index [1, 4] | mg/l NH2Cl (alone or in the mixture) to yield 50% inhibition (I50) ([1]; pH 8.0, synthetic white water) | Numbers of bacteria surviving after a 20 minute contact time (average of three values) ([2]; pH 5.0, 0.5 mg/l single active) | Numbers of bacteria surviving after a 20 minute contact time (average of three values) ([2]; pH 5.0, 1.0 mg/l single active) | Numbers of bacteria surviving after a 20 minute contact time (average of three values) ([2]; pH 6.0, 0.5 mg/l single active) | Numbers of bacteria surviving after a 20 minute contact time (average of three values) ([2]; pH 6.0, 1.0 mg/l single active) | Numbers of bacteria surviving after a 20 minute contact time (average of three values) ([2]; pH 7.0, 0.5 mg/l single active) | Numbers of bacteria surviving after a 20 minute contact time (average of three values) ([2]; pH 7.0, 1.0 mg/l single active) | Numbers of bacteria surviving after a 20 minute contact time (average of three values) ([2]; pH 8.0, 0.5 mg/l single active) | Numbers of bacteria surviving after a 20 minute contact time (average of three values) ([2]; pH 8.0, 1.0 mg/l single active) | mg/l NHCl2 (alone or in the mixture) to yield 50% inhibition (I50) ([1]; pH 5.5, synthetic white water) | mg/l NHCl2 (alone or in the mixture) to yield 50% inhibition (I50) ([1]; pH 8.0, synthetic white water)
1 | NCl [NH2Cl, monochloramine] | 1.00 | 18.21 mg/L | 1.00 | 7.96 mg/L | 4.97 log10 | 3.94 log10 | 5.14 log10 | 5.14 log10 | 5.47 log10 | 5.17 log10 | 5.74 log10 | 5.71 log10 |  | 
2 | ClNCl [NHCl2, dichloramine] | 1.00 |  | 1.00 |  | 5.58 log10 | 4.47 log10 | 5.17 log10 | 3.62 log10 | 5.52 log10 | 5.40 log10 | 5.62 log10 | 5.26 log10 | 17.23 mg/L | 0.59 mg/L
